Here are results for two compounds from patent US9011853B2, “B7-H4 fusion proteins and methods of use thereof” (Amplimmune, Inc., priority 2009, dated 2015).

Values joined by “and” are separate entries in the source; they are usually repeats but may differ in a detail not shown here. Identical values can stand only once.

Assay [1] concerns MRL/lpr mice. The assay is described as follows: MRL/lpr lupus mouse model, anti-dsDNA autoantibody ELISA. Format: in vivo. The conditions noted are these: individual MRL/lpr mouse, plasma diluted 1:2000. Here is the method:
MRL/lpr mice at 4 weeks of age were used in this experiment. Animals were tagged with metal tags on their right ears for identification. […] In the proof-of-concept study, combination treatments with recombinant murine B7-H4-Ig and CTX were tested. Mice received single or combination treatment of murine B7-H4-Ig (Lot#DEV-110-5-006) at 5 mg/kg with or without CTX at 50 mg/kg via IP injection, once every 2 weeks (FIG. 59). Murine B7-H4-Ig dosing regimen at 5 mg/kg (100 μg/mouse/injection), twice a week, was chosen based on in vivo studies of monoclonal antibody and fusion proteins. […] Blood samples ([…]) were taken from the submandibular vein (ARC SOP 8050.02.08) 3 days before the protein treatment and the every other week during and after treatments. Blood samples were collected in Microtainer® Blood Collection Tubes, and plasma was harvested from the supernatant of blood sample after centrifugation and stored at −80° C. freezer until use.
A positive anti-dsDNA autoantibody control was generated by pooling plasma from 5 aged MRL/lpr mice, approximately 8 months of age. The positive control plasma was aliquoted and stored at −80° C. freezer before use.
The dsDNA solution (10 mg/mL) was first generated by dissolving salmon testes DNA in PBS at 37° C. in a water bath followed by filtration through a 0.45 μm membrane filter. The dsDNA solution was aliquoted and stored at −80° C. before use.
On the day prior to the autoantibody ELISA, 100 μL of the dsDNA stock solution was first added to 10 mL of PBS resulting in a final concentration of 100 μg/ml. […] of the diluted dsDNA was then added to each well of Immulon 2HB 96-well flat bottom microtiter plates. Plates were placed in a humidified incubator at 37° C. without lids for overnight coating. Plates were washed 4 times with 300 μL of PBS/T [0.1% (v/v) Tween-20 (polysorbate 20) in PBS] using a microtiter plate washer (hydroFLEX, TECAN. Software: HydroControl) and then blocked with 200 μL of blocking buffer (10% fetal bovine serum in PBS) at room temperature for at least 1 h followed by 4 washes with 300 μL of PBS/T. The negative control (normal Balb/C mouse plasma, 1:2000 dilution), positive controls (1:5000, 1:10000, 1:20000 dilutions), and samples (1:2000 dilution) were diluted with blocking buffer. Next, 100 μL of each diluted control and sample was added to corresponding wells (duplicate wells) and incubated at room temperature for 2 h or at 4° C. overnight followed by 4 washes with 300 μL of PBS/T. For detection, 100 μL of anti-mouse IgG-HRP (Sigma, A9309, diluted to 1:10000 in blocking buffer) was added to each well and the plate was incubated at room temperature for 1 h followed by 4 washes with 400 μL of PBS/T.
Later, 100 μL of room temperature, pre-warmed TMB Substrate Reagent was added to each well. When the color developed optimally (about 10 min), 100 μL of stop solution (1% sulfuric acid) was added. The plate was then read for absorbance at 450 nm (OD450) using a microtiter plate reader (SPECTRAmax, Molecular Devices. Software: SoftMax Pro5.2).
All the blood samples were analyzed at the end of the study. The OD450 value of test samples was normalized relatively to the internal positive control at the 1:10000 dilution. The relative value rather than the absolute Ab concentration was used for comparison.
Female MRL/lpr mice at age of 4 weeks were divided into 4 groups (FIG. 59): vehicle, CTX alone, murine B7-H4-Ig alone and CTX plus murine B7-H4-Ig combination treatment (Combo). CTX was given IP, 50 mg/kg, once every 2 weeks. Murine B7-H4-Ig was administrated IP, 100 μg (5 mg/kg), and twice every week. The Combo group received CTX injection every 2 weeks and murine B7-H4-Ig 2 times every week at 5 mg/kg. Mice were treated for 7 weeks.
Plasma was collected from MRL/lpr mice pre-treatment (4 wk) and periodically up to 21 weeks of age.
(In an ELISA, binding on a coated surface is turned into a signal by an enzyme label.)

The subject of assay [2] is DBA/1 mice. The assay is described as follows: Therapeutic CIA study AA#80 (male mice), disease score. Format: in vivo, mouse. The conditions noted are these: individual mice (Tag #). On the procedure:
(§1) DBA/1 mice (10 per group) aged 7-9 weeks were used for the CIA model. Mice from several vendors (Jackson Laboratories, Harlan Laboratories, and Taconic Farms) were tested and it was determined that Taconic mice are most appropriate for the CIA studies. Taconic mice develop more consistent and severe disease symptoms and show continued disease progression, while mice from the other vendors often show stable, less severe disease, even in the absence of treatment. female (F) mice in AA#79 and male (M) mice in AA#80, were tested to determine which gender to use in future experiments.
(§2) On the day before the study is initiated, the hair on the right flank of each mouse was removed using an electric clipper. A metal identification tag was placed on the right ear of each mouse. On Day 0, mice were immunized with 100 μL of chicken collagen type II/Complete Freund's Adjuvant (CII/CFA) emulsion in the right flank. On Day 20, the hair on the left flank of each mouse was removed using an electric clipper, and on Day 21, mice were immunized with 100 μL of chicken collagen type II/Incomplete Freund's Adjuvant (CII/IFA) emulsion in the left flank. Pre-filled syringes of CII/CFA and CII/IFA emulsion purchased from Hooke Laboratories were used to ensure consistent dosing with and potency of the immunogen.
(§3) Early arthritis symptoms, such as erythema and mild swelling, usually appear on Day 21, and on Day 28, more severe symptoms such as swelling in many digits and inflammation extending to the tarsal joint are typically present. Each limb is evaluated for severity of arthritis symptoms three times a week using a widely accepted arthritis severity score system, shown in Table 2. The scores from each of the 4 limbs are summed to yield the disease score of each mouse. […]
(§4) Treatment was initiated when the average disease score for the study animals was greater than four. This corresponded to Day 29 in AA#79 and Day 24 in […]. By waiting until animals are symptomatic, it was ensured that the model is performed in a therapeutic rather than prophylactic mode.
(§5) B7-H4-Ig, RPA110010, and murine B7-H4-Ig proteins were administered by intraperitoneal (IP) injection 3 times a week for a total of 8 doses. RPA110010 is an extracellular domain variant of B7-H4-Ig, SEQ ID NO:126. Control murine and human IgG proteins were given once a week for a total of 3 doses. […] All proteins were diluted to the desired concentration (500 μg in 500 μL, or 1 mg/mL) with sterile PBS immediately before injection. Vehicle control mice receive Amplimmune formulation buffer diluted 1:10 in PBS, with an injection volume of 500 μL.

For assay [3], the system named is DBA/1 mice. The assay is described as follows: Therapeutic CIA study AA#79 (female mice), disease score. Format: in vivo, mouse. On the procedure:
as §1, §2, §3, §4, §5

In the case of `O=P1(N(CCCl)CCCl)NCCCO1` (stereo not drawn) [CTX, Cyclophosphamide], the “dsDNA autoantibody (OD450 normalized against positive control diluted at 1:10000)” value in assay [1] (mouse age 4 weeks (pre-treatment)) is 0.15 and 0.46 and 0.05 and 0.09 and 0.01; in assay [1] (mouse age 7 weeks), 0.55 and 0.21 and 1.07 and 0.10 (2×); in assay [1] (mouse age 8 weeks), 2.50 and 0.33 and 2.03 and 0.17 and 0.06; in assay [1] (mouse age 9 weeks) it was 3.46 and 2.09 and 2.26 and 0.79 and 0.26; in assay [1] (mouse age 10 weeks), 1.50 and 4.05 and 2.95 and 1.97 and 0.39; in assay [1] (mouse age 11 weeks), 2.97 and 4.67 and 3.75 and 2.21 and 0.55. The “dsDNA autoantibody (OD450 normalized against positive control diluted at 1:10000)” value in assay [1] (mouse age 15 weeks) is 2.93 and 4.87 and 2.62 and 1.76 and 1.11; in assay [1] (mouse age 19 weeks) it was 2.61 and 11.76 and 3.05 and 2.58 and 1.26.

Syngis: the “AA#80 CIA disease scores” value in assay [2] (Study Day 20) was 4 (3×) and 1 and 2 (2×) and 5 and 3 and 6; in assay [2] (Study Day 22), 5 (4×) and 2 (2×) and 4 (2×) and 8; in assay [2] (Study Day 24), 5 (4×) and 6 (3×) and 3 and 8; in assay [2] (Study Day 27), 6 (4×) and 4 (2×) and 5 and 7 and 8; in assay [2] (Study Day 29) it was 6 (2×) and 5 (4×) and 4 and 7 and 11; in assay [2] (Study Day 31), 8 (3×) and 5 and 6 (3×) and 3 and 11. Further, the “AA#80 CIA disease scores” value was 10 and 7 (2×) and 8 (4×) and 6 and 11 in assay [2] (Study Day 34); 10 and 8 (5×) and 7 and 11 and 13 in assay [2] (Study Day 36); 11 (2×) and 6 (2×) and 8 and 7 (2×) and 10 (2×) and 12 in assay [2] (Study Day 38); 12 and 13 (2×) and 7 and 8 and 9 and 10 (2×) and 14 in assay [2] (Study Day 41); 10 and 14 and 7 (3×) and 8 and 11 and 12 and 13 in assay [2] (Study Day 44). In addition, the CIA disease score in assay [3] (AA#79, Study Day 12, individual mouse (Tag#)) was 0 (2×) and 1 (3×) and 2; in assay [3] (AA#79, Study Day 18, individual mouse (Tag#)), 2 (4×) and 1 (2×); in assay [3] (AA#79, Study Day 22, individual mouse (Tag#)), 4 and 2 (4×) and 3; in assay [3] (AA#79, Study Day 25, individual mouse (Tag#)) it was 2 (4×) and 5 and 3; in assay [3] (AA#79, Study Day 27, individual mouse (Tag#)) it was 5 (2×) and 7 and 4 (2×) and 6; in assay [3] (AA#79, Study Day 29, individual mouse (Tag#)) it was 6 (3×) and 5 and 4 and 10. For the same compound, the CIA disease score in assay [3] (AA#79, Study Day 32, individual mouse (Tag#)) is 10 and 9 (2×) and 7 and 8; in assay [3] (AA#79, Study Day 34, individual mouse (Tag#)) it was 10 (2×) and 9 (2×) and 6; in assay [3] (AA#79, Study Day 36, individual mouse (Tag#)), 11 (2×) and 9 (2×) and 10 and 8; in assay [3] (AA#79, Study Day 39, individual mouse (Tag#)) it was 11 (2×) and 8 and 6 and 9 and 12; in assay [3] (AA#79, Study Day 41, individual mouse (Tag#)), 12 and 10 (2×) and 13 and 6 and 11; in assay [3] (AA#79, Study Day 43, individual mouse (Tag#)), 12 (2×) and 11 (2×) and 6 and 10. The CIA disease score in assay [3] (AA#79, Study Day 46, individual mouse (Tag#)) was 14 (2×) and 11 and 12 and 6 and 10; in assay [3] (AA#79, Study Day 48, individual mouse (Tag#)), 13 (3×) and 11 and 5 and 12; in assay [3] (AA#79, Study Day 50, individual mouse (Tag#)) it was 11 (2×) and 12 (3×) and 9; in assay [3] (AA#79, Study Day 54, individual mouse (Tag#)) it was 13 (2×) and 12 (3×) and 8; in assay [3] (AA#79, Study Day 57, individual mouse (Tag#)), 13 (2×) and 14 and 7 and 12 and 15.
